# Measured values from ChEMBL document CHEMBL2073818, “St John's Wort induces intestinal P-glycoprotein/MDR1 and intestinal and hepatic CYP3A4” (Clin Pharmacol Ther, 2000).
# Target: ATP-dependent translocase ABCB1 (Homo sapiens, UniProt P08183)
# Assay: TP_TRANSPORTER: Western in vivo human
# Format: functional, organism-based
# Sequence of ATP-dependent translocase ABCB1 (P08183 whole entry): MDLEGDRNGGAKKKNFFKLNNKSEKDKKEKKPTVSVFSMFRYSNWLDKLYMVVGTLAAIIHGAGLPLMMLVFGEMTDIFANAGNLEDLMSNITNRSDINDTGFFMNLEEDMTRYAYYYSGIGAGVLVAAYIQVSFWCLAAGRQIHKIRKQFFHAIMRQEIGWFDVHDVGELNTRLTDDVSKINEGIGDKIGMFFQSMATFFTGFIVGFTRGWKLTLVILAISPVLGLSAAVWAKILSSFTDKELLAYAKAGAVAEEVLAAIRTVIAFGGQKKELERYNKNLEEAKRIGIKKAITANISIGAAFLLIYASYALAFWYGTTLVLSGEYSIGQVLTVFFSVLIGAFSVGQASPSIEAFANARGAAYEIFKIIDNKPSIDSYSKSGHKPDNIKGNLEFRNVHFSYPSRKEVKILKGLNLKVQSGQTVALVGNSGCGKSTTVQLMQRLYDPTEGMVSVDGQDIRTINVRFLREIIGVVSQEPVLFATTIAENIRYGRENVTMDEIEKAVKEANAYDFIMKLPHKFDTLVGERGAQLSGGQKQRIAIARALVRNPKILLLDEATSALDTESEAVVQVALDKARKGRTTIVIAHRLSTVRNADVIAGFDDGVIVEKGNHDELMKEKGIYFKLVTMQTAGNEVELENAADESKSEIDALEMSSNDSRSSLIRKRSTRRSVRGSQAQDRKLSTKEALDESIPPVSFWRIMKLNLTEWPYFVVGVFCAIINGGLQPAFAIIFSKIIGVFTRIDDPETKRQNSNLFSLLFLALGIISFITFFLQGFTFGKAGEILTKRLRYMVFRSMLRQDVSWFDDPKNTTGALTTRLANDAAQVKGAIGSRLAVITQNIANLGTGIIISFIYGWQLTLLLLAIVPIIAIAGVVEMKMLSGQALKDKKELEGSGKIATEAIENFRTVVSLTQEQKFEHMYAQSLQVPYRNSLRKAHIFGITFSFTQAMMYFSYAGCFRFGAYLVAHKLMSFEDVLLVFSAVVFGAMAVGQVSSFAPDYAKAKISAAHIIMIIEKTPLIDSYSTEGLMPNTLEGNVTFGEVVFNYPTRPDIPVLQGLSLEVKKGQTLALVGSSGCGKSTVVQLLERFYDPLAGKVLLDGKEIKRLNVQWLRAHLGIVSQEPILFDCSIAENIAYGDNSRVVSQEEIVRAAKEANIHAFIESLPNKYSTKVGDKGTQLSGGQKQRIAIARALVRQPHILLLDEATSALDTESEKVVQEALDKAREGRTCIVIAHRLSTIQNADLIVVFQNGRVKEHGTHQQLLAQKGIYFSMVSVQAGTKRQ
substance,measurement,value
ST. JOHN'S WORT,Activity,inducer [+]
